The source of these data is patent US20130324532A1 (priority 2011, published 2013).

Where two headings read alike, the source gives them in different places.

One experiment has as its system MDA-231-LNA cells. The experiment can be described thus: cells. To be noted: 72 h.
Experiment [1] addresses N-terminally GST-fused purified FAK enzyme (Homo sapiens, UniProt Q05397). The experiment can be described thus: biochemical.
Procedure: Binding parameters of compounds were determined using a Biacore™ S51 sensor. An anti-GST antibody was immobilized onto a CM5 chip by primary amine-coupling in accordance with the manufacturer's recommendations.
Concentration series' of the test compounds were injected over the spots at 25° C.
After the injection cycle of a compound the chip surface was regenerated with 10 mM glycine-HCl, pH2.2 before capturing the enzyme again.
For experiment [2], the target named is FAK enzyme (catalytic domain, amino acids 411-686) (Homo sapiens, UniProt Q05397). The experiment can be described thus: biochemical.
Experiment [3] has as its target VEGFR3 cytoplasmic domain (Homo sapiens, UniProt P35916). The experiment can be described thus: biochemical.
Experiment [4] has as its system HeyA8, SKOV3ip1, and HeyA8-MDR models. To be noted: cited from earlier work.
Experiment [5] deals with taxane-sensitive (SKOV3ip1 and HeyA8) and taxane-resistant (HeyA8-MDR) ovarian cancer cell lines. To be noted: in vitro; cited from earlier work.
Experiment [6] concerns the target T1, Phospho VEGFR3 (Flt4) in HMVEC-dLyAD cells (Homo sapiens, UniProt P35916).
T1 construct: host or cells: HMVEC-dLyAD (adult human dermal lymphatic microvascular endothelial cells)
The experiment can be described thus: Flt4 Phospho ELISA assay. Type of experiment: cell-based. On the technique in general: An ELISA detects its analyte on a solid surface through an enzyme-linked reagent.
Procedure: The ability of compounds of the invention to inhibit VEGFR3 within cells can be assessed with an ELISA type assay.
The plates were covered and incubated at room temperature overnight.
300 μL of Blocking buffer (5% v/v Tween 20, 5% w/v sucrose in PBS) was then added to wells and plate incubated for 2 hours at room temperature. Blocking solution is flicked out and plates washed three times and tapped dry.
Compound dilution series were prepared in Endogro basal (Cat # SCME-BM, Millipore)+0.1% BSA (Cat#A8412, Sigma) with constant 0.1% DMSO concentration. 439 μL of sample or vehicle control was added to the cell monolayers.
130 μL of Lysis buffer added to wells and cell lysate harvested and transferred to tubes and stored on ice.
The plates were then washed three times in wash buffer as described above and tapped dry. […]
Total VEGFR3 levels were quantified using a Multiskan Ascent plate reader and Ascent software fitted with 450 nm filter. […]
Phospho VEGFR3 levels were quantified using a Multiscan ascent plate reader and ascent software fitted with 450 nm filter.
where SRP is the Sample Relative Phospho level, SP is Phospho VEGFR3 reading and ST is Total VEGFR3 reading.
Percent inhibition (% I) for each lysate relative to vehicle control (VEGF-C stimulated) is then calculated according to the following formula:
where SRP is the Sample Relative Phospho level as calculated above. […]

Experiment [7] addresses T2, VEGFR3 cytoplasmic domain (Homo sapiens, UniProt P35916, DEL949-1002).
T2 construct: VEGFR3 cytoplasmic domain (amino acids 798-1298) was purchased as N-terminal GST-fusion protein; purchased
The experiment can be described thus: biochemical.

N-terminally GST-fused purified FAK enzyme, sequence (Q05397 whole entry, the tested form may be a part): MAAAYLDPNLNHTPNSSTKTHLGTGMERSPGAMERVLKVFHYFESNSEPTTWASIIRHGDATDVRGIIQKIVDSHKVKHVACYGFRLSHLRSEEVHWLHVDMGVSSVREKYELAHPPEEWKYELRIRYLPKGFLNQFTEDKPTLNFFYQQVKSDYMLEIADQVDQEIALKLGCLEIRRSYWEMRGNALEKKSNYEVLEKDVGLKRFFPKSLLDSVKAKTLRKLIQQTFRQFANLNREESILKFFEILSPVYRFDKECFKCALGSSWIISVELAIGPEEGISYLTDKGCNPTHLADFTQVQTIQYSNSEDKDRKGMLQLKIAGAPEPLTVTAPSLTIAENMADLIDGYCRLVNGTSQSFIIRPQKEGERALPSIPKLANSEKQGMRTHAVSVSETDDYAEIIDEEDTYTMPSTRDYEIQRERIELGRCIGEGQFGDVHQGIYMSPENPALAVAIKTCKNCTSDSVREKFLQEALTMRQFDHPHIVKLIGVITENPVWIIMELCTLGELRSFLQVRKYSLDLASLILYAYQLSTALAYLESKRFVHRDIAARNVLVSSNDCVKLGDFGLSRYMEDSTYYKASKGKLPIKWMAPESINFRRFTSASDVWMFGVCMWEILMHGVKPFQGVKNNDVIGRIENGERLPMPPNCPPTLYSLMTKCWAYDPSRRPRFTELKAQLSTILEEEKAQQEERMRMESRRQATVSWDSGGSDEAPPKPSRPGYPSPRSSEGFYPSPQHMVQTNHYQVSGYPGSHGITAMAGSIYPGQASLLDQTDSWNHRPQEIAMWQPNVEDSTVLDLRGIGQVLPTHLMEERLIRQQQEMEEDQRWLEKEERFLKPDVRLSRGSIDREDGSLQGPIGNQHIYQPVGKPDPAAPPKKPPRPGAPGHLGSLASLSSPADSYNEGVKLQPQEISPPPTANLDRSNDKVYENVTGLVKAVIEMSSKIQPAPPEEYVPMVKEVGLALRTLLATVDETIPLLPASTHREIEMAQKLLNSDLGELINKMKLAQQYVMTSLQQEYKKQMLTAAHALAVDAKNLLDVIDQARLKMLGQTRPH
VEGFR3 cytoplasmic domain (Homo sapiens, UniProt P35916), sequence (P35916 other isoform, or with tags, fused parts or gaps): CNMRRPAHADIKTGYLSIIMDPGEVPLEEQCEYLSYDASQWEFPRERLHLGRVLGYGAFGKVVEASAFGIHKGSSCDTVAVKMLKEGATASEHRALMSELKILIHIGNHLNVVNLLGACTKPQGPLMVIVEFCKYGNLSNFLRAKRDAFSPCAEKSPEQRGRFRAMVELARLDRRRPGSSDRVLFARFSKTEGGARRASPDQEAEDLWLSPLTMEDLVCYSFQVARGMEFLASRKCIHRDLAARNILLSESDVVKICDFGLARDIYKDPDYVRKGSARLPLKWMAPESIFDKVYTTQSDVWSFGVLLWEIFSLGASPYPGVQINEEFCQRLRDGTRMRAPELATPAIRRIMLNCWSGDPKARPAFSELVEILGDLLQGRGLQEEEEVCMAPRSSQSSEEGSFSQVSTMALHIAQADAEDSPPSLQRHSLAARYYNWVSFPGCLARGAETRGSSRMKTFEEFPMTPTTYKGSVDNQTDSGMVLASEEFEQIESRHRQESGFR
FAK enzyme (catalytic domain, amino acids 411-686), sequence (Q05397 411-686, species assumed): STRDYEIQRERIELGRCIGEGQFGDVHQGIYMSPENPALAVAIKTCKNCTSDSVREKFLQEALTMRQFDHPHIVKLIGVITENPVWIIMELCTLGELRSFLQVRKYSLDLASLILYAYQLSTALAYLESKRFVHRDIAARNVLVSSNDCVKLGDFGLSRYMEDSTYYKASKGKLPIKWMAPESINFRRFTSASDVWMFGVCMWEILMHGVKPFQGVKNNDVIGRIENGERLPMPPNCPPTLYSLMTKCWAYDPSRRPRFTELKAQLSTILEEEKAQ
T1 sequence (P35916 25-1363): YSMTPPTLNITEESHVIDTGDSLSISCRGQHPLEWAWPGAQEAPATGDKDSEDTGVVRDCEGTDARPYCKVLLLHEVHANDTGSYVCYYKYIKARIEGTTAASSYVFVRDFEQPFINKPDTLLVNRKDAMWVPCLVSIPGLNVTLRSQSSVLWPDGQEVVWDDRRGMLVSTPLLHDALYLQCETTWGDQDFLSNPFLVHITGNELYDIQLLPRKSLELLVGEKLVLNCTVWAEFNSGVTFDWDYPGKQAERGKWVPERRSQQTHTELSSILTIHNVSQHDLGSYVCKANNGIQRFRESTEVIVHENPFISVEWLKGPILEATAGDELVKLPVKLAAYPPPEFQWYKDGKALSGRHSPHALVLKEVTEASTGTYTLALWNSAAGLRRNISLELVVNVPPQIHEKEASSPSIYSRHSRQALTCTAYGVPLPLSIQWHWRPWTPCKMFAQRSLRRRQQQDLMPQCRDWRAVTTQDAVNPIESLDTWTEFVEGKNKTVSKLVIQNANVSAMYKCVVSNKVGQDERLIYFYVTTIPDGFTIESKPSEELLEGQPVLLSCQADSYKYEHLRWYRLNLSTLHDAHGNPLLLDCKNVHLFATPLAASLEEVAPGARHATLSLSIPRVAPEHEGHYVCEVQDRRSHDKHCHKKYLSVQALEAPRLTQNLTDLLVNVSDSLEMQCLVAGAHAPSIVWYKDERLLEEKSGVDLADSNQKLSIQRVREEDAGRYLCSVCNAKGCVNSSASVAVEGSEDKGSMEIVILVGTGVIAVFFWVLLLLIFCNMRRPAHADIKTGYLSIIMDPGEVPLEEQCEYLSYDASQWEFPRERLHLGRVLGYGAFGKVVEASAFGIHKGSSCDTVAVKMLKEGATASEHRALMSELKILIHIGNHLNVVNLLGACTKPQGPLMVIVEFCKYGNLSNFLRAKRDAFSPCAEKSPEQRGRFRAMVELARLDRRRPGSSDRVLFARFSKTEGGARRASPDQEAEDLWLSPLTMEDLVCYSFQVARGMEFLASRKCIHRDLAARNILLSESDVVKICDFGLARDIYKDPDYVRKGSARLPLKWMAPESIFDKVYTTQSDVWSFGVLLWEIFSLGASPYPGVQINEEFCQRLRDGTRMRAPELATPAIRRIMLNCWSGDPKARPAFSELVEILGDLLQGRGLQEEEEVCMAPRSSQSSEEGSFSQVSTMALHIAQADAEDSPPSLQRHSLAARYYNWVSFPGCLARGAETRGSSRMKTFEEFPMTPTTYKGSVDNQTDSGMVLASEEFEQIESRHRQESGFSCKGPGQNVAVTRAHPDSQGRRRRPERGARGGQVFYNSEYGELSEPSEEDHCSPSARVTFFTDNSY
T2 sequence (P35916 with tags, fused parts or gaps DEL949-1002): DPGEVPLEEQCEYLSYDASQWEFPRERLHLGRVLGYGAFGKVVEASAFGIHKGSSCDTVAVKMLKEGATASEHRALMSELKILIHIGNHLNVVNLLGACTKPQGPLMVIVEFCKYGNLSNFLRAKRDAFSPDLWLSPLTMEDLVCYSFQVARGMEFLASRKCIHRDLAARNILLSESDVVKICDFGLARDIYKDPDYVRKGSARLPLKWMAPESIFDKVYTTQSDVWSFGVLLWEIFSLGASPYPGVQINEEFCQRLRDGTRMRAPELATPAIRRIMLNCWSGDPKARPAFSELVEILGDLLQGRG

Usually IC50 stands for the concentration that gives 50% inhibition. Consider `NC(=O)Cc1ccccc1CCc1nc(Nc2ccc(CN3CCNCC3)cc2)ncc1C(F)(F)F` [Compound 25, 2-(2-(2-(2-((4-(piperazin-1-ylmethyl)phenyl)amino)-5-(trifluoromethyl)pyrimidin-4-yl)ethyl)phenyl)acetamide], for which it took 2890 nM to reach half-maximal inhibition in the experiment with MDA-231-LNA cells (IC50).
Usually Kd stands for the equilibrium constant for the complex coming apart. Higher therefore signals a looser complex. Regarding `NC(=O)Cc1ccccc1CCc1nc(Nc2ccc(C3CCCNC3)cc2)ncc1C(F)(F)F` (centres unmarked) [Compound 4, 2-(2-(2-(2-((4-(Piperidin-3-yl)phenyl)amino)-5-(trifluoromethyl)pyrimidin-4-yl)ethyl)phenyl)acetamide], the Kd in experiment [1] was found to be 0.73 nM. For the same compound, it took 1.5 nM to reach half-maximal inhibition in experiment [2] (IC50).
Turning to `NC(=O)Cc1ccccc1CCc1nc(Nc2ccc(C3CCNCC3)cc2)ncc1C(F)(F)F` [Compound 11, 2-(2-(2-(2-((4-(Piperidin-4-yl)phenyl)amino)-5-(trifluoromethyl)pyrimidin-4-yl)ethyl)phenyl)acetamide], binding in experiment [1] was put at a Kd of 0.61 nM. Half-maximal inhibition in experiment [2] (IC50) was put at 3 nM.
Compound `NC(=O)Cc1nccnc1CCc1nc(Nc2ccc(C3CCNCC3)cc2)ncc1C(F)(F)F` [Compound 26, 2-(3-(2-(2-((4-(Piperidin-4-yl)phenyl)amino)-5-(trifluoromethyl)pyrimidin-4-yl)ethyl)pyrazin-2-yl)acetamide] came in with a Kd in experiment [1] of 14 nM. The compound further returned an IC50 in experiment [2] of 20 nM.
In experiment [1], `CNC(=O)Cc1ccccc1CCc1nc(Nc2cccc(N3CCN(C)CC3)c2)ncc1C(F)(F)F` [Compound 18] came in with a Kd of 13 nM. For the same compound, the half-inhibitory concentration (IC50) in the experiment on MDA-231-LNA cells was over 5000 nM; in experiment [3], 664 nM; in experiment [2], 13 nM.
The compound `NC(=O)Cc1cncnc1CCc1nc(Nc2ccc(C3CCNCC3)cc2)ncc1C(F)(F)F` [Compound 29, 2-(4-(2-(2-((4-(Piperidin-4-yl)phenyl)amino)-5-(trifluoromethyl)pyrimidin-4-yl)ethyl)pyrimidin-5-yl)acetamide] had a Kd in experiment [1] of 12.1 nM. In addition, in experiment [2], the IC50 was 11 nM.
As to `CNC(=O)c1ccccc1Nc1nc(Nc2ccc(N3CCOCC3)cc2OC)ncc1Cl` [TAE226], the “reduced tumour burden compared with vehicle-treated controls” value in experiment [4] (TAE226 alone, HeyA8, SKOV3ip1, HeyA8-MDR models) was 46-64%. Also, the tumour burden reduction in experiment [4] (concomitant administration of TAE226 and docetaxel, all three models) is reported as 85-97%. Besides, the “survival in tumour-bearing mice” value in experiment [4] (in combination with docetaxel) is reported as “significantly prolonged survival”. In addition, in experiment [5], the “phosphorylation of FAK at both Y397 and Y861 sites” value is listed as “inhibited”.
Compound `NC(=O)Cc1ccccc1CCc1nc(Nc2ccc(N3CCNCC3)cc2)ncc1C(F)(F)F` [Compound 1, 2-(2-(2-(2-((4-(piperazin-1-yl)phenyl)amino)-5-(trifluoromethyl)pyrimidin-4-yl)ethyl)phenyl)acetamide] gave a Kd in experiment [1] of 0.49 nM. In experiment [2], the IC50 is 2.1 nM.
As for `NC(=O)Cc1ccccc1CCc1nc(Nc2ccc(C3CNCCO3)cc2)ncc1C(F)(F)F` (centres unmarked) [Compound 22, 2-(2-(2-(2-((4-(morpholin-2-yl)phenyl)amino)-5-(trifluoromethyl)pyrimidin-4-yl)ethyl)phenyl)acetamide], in experiment [1], the Kd stood at 0.99 nM. Besides, 2.8 nM corresponded to half-maximal inhibition in experiment [2] (IC50).
On to `CN1CCN(c2cccc(Nc3ncc(C(F)(F)F)c(CCc4ccccc4CC(N)=O)n3)c2)CC1` [Compound 17, 2-(2-(2-(2-((3-(4-Methylpiperazin-1-yl)phenyl)amino)-5-(trifluoromethyl)pyrimidin-4-yl)ethyl)phenyl)acetamide], for which, in experiment [1], binding was put at a Kd of 3.5 nM. For the same compound, the IC50 in the experiment with MDA-231-LNA cells is 3510 nM; in experiment [3], 31 nM; in experiment [6], 44 nM; in experiment [2], 3.4 nM.
As to `NC(=O)Cc1ccccc1CCc1nc(Nc2ccc(C3CCCCN3)cc2)ncc1C(F)(F)F` (centres unmarked) [Compound 8, 2-(2-(2-(2-((4-(Piperidin-2-yl)phenyl)amino)-5-(trifluoromethyl)pyrimidin-4-yl)ethyl)phenyl)acetamide], the Kd in experiment [1] came to 1 nM. Moreover, 6.1 nM corresponded to half-maximal inhibition in experiment [2] (IC50).
On the same counts, the results for `NC(=O)Cc1ccccc1CCc1nc(Nc2ccc(N3CCC(N)CC3)cc2)ncc1C(F)(F)F` [Compound 20, 2-(2-(2-(2-((4-(4-Aminopiperidin-1-yl)phenyl)amino)-5-(trifluoromethyl)pyrimidin-4-yl)ethyl)phenyl)acetamide] are 0.63 nM and 0.81 nM.
In the case of `CN1CCCCC1c1ccc(Nc2ncc(C(F)(F)F)c(CCc3ccccc3CC(N)=O)n2)cc1` (centres unmarked) [Compound 9], the affinity in experiment [1], expressed as Kd, was 7 nM. In experiment [2], this compound displayed an IC50 of 7 nM.
In turn, `Cc1ccc(CCc2nc(Nc3ccc(N4CCNCC4)cc3)ncc2C(F)(F)F)cc1C(N)=O` [Compound 19, 2-Methyl-5-(2-(2-((4-(piperazin-1-yl)phenyl)amino)-5-(trifluoromethyl)pyrimidin-4-yl)ethyl)benzamide] had a Kd in experiment [1] of 7.8 nM. Moreover, the figures for the IC50 (in the experiment with MDA-231-LNA cells; in experiment [3]; in experiment [2]) were 1490 nM, 37 nM and 7.7 nM, respectively.
Consider `NC(=O)c1cccc(CCc2nc(Nc3ccc(CN4CCNCC4)cc3)ncc2C(F)(F)F)c1` [Compound 37, 3-(2-(2-((4-(piperazin-1-ylmethyl)phenyl)amino)-5-(trifluoromethyl)pyrimidin-4-yl)ethyl)benzamide], for which the IC50 with MDA-231-LNA cells was found to be 2790 nM; in experiment [3] it was 254 nM; in experiment [2], 15 nM.
In experiment [1], `CN1CCN(c2ccc(Nc3ncc(C(F)(F)F)c(CCc4cccc(C(N)=O)c4)n3)cc2)CC1` [Compound 2, 3-(2-(2-((4-(4-Methylpiperazin-1-yl)phenyl)amino)-5-(trifluoromethyl)pyrimidin-4-yl)ethyl)benzamide] came in with an equilibrium dissociation constant (Kd) of 1.5 nM. The IC50 in the experiment on MDA-231-LNA cells worked out at 3210 nM; in experiment [7] (modified form (*): N-terminal Hexa-His-fusion protein, amino acids 818-1177 lacking 949-1002, read-out: IC50) it was 120 nM; in experiment [2], 2.5 nM.
In the case of `CN1CCN(c2ccc(Nc3ncc(C(F)(F)F)c(CCc4ccccc4CC(N)=O)n3)cc2)CC1` [Compound 3], binding in experiment [1] was characterised by a dissociation constant (Kd) of 0.91 nM. This compound showed an IC50 in experiment [2] of 1.9 nM.
With `CN1CCN(c2cccc(Nc3ncc(C(F)(F)F)c(CCc4cccc(C(N)=O)c4)n3)c2)CC1` [Compound 6, 3-(2-(2-((3-(4-Methylpiperazin-1-yl)phenyl)amino)-5-(trifluoromethyl)pyrimidin-4-yl)ethyl)benzamide], in experiment [1], the Kd is 6.3 nM. In addition, the IC50 in the experiment with MDA-231-LNA cells came to 3910 nM; in experiment [3], 52 nM; in experiment [2], 4.2 nM.
The compound `O=C1NCc2cccc(CCc3nc(Nc4ccc(N5CCNCC5)cc4)ncc3C(F)(F)F)c21` [Compound 15, 7-(2-(2-((4-(piperazin-1-yl)phenyl)amino)-5-(trifluoromethyl)pyrimidin-4-yl)ethyl)isoindolin-1-one] registered a Kd in experiment [1] of 5 nM. The IC50 with MDA-231-LNA cells stood at 2370 nM; in experiment [3] (read-out: IC50), 37 nM; in experiment [2], 18 nM.
`CN1CCN(Cc2ccc(Nc3ncc(C(F)(F)F)c(CCc4ccccc4CC(N)=O)n3)cc2)CC1` [Compound 36, 2-(2-(2-(2-((4-((4-Methylpiperazin-1-yl)methyl)phenyl)amino)-5-(trifluoromethyl)pyrimidin-4-yl)ethyl)phenyl)acetamide] displayed a dissociation constant Kd in experiment [1] of 0.48 nM. The IC50 in the experiment with MDA-231-LNA cells was 5620 nM; in experiment [3] it was 16 nM; in experiment [6] it was 169 nM; in experiment [2], 2.3 nM.
In the case of `CNC(=O)Cc1ccccc1CCc1nc(Nc2ccc(N3CCNCC3)cc2)ncc1C(F)(F)F` [Compound 14, N-Methyl-2-(2-(2-(2-((4-(piperazin-1-yl)phenyl)amino)-5-(trifluoromethyl)pyrimidin-4-yl)ethyl)phenyl)acetamide], in experiment [1], the Kd was determined as 6.1 nM. Further, the IC50 in the experiment with MDA-231-LNA cells was 4490 nM; in experiment [3] it was 101 nM; in experiment [2] it was 21 nM.
Regarding `NC(=O)Cc1ccccc1CCc1nc(Nc2ccc3c(c2)CCNC3)ncc1C(F)(F)F` [Compound 21, 2-(2-(2-(2-((1,2,3,4-Tetrahydroisoquinolin-6-yl)amino)-5-(trifluoromethyl)pyrimidin-4-yl)ethyl)phenyl)acetamide], binding in experiment [1] was put at a Kd of 0.44 nM. Also, the IC50 in experiment [2] was 2.4 nM.
Take `CN1CCC(c2ccc(Nc3ncc(C(F)(F)F)c(CCc4cc(C(N)=O)ccn4)n3)cc2)CC1` [Compound 34, 2-(2-(2-((4-(1-Methylpiperidin-4-yl)phenyl)amino)-5-(trifluoromethyl)pyrimidin-4-yl)ethyl)isonicotinamide]: the Kd in experiment [1] came out at 5 nM. In addition, the IC50 in the experiment on MDA-231-LNA cells was 7850 nM; in experiment [7] it was 184 nM; in experiment [2] it was 5.7 nM.
Consider `CC(C(N)=O)c1ccccc1CCc1nc(Nc2ccc(C3CCNCC3)cc2)ncc1C(F)(F)F` (centres unmarked) [Compound 12, 2-(2-(2-(2-((4-(Piperidin-4-yl)phenyl)amino)-5-(trifluoromethyl)pyrimidin-4-yl)ethyl)phenyl)propanamide], for which the affinity in experiment [1], expressed as Kd, was 0.92 nM. Half-maximal inhibition in experiment [2] (IC50) required 6.3 nM.
In the case of `CCN1CCC(c2ccc(Nc3ncc(C(F)(F)F)c(CCc4ccccc4CC(N)=O)n3)cc2)CC1` [Compound 31, 2-(2-(2-(2-((4-(1-Ethylpiperidin-4-yl)phenyl)amino)-5-(trifluoromethyl)pyrimidin-4-yl)ethyl)phenyl)acetamide], the Kd in experiment [1] was 1 nM.
